Test results taken from patent publication US20090082368A1, “METHODS OF MODULATING NEUROTROPHIN-MEDIATED ACTIVITY” (PainCeptor Pharma Corporation, priority 2007, published 2009).
Read-outs that look alike come from different tables or passages of the source.

Columns and labels:
[1] = tested on: NGF receptors on PC12 cells (TrkA+p75); experiment: NGF binding (125I-NGF) using PC12 cells; set-up: species or system rat
Procedure: NGF binding was evaluated using methods familiar to those who are skilled in the art. Briefly, cells expressing one or both NGF receptors (PC12: TrkA+p75; A875: p75 alone; HEK/CHO_trkA: TrkA alone) were harvested by replacing the medium with the cell dissociation buffer (Amersham) and incubating at 37° C. for 15 min. […] For most compounds, multiple dose-response curves were generated.
The IC50 data shown in Tables A-J were acquired using the procedure described herein using PC12 cells.

[2] = tested on: PC12 cells; experiment: Inhibition of NGF-induced neurite outgrowth; assay type: cell-based; settings: Rattus norvegicus, PC-12, 96 h, Table 3, 4 days exposure to NGF
Procedure: This assay is run as a further functional marker of NGF antagonism and takes advantage of the differentiation of PC12 cells (neurite outgrowth) induced by NGF. Cultures of PC12 cells are grown on Terasaki plates pre-coated with poly-D-lysine. Cells are exposed to NGF (1-50 (preferably 5) ng/ml) to induce neurite outgrowth as described elsewhere [LA Greene & AS Tischler, Establishment of a noradrenergic clonal line of rat adrenal pheochromocytoma cells which respond to nerve growth factor, Proc Natl Acad Sci USA. 1976 July; 73(7): 2424-2428]. In addition to NGF, cells are exposed to varying concentration of the compounds or vehicle. Following 4 days of exposure to NGF in the presence or absence of compound, neurite outgrowth is quantified. A neurite is scored if its caliber from origin to terminal is approximately the same and the length is equal to or greater than 1.5 the cell body diameter. The number of neurite bearing cells per total number of viable cells is calculated for each condition; the number of cells with neurites in the presence of NGF (without compound exposure) is considered to represent maximal (100%) outgrowth, to which the inhibitory effect of compounds of the invention on NGF-induced outgrowth is compared.

[3] = tested on: NGF-induced ERK phosphorylation; experiment: Inhibition of NGF-induced Erk 1/2 phosphorylation (pERK); assay type: cell-based; settings: Rattus norvegicus, Table 2
Procedure: This assay is useful for establishing that the compounds of the invention are functional NGF antagonists, not receptor agonists (an agonist could conceivably block NGF binding but actually activate the receptor). Erk 1/2 is a kinase activated down stream of TrkA and is a well studied member of the NGF-induced signal transduction cascade.
PC12 cells expressing TrkA and p75 are acutely exposed to 1 ng/mL NGF (15 min; 37° C.; 5% CO2) that is pre-incubated (30 min; room temperature) with or without the compounds. Cells are lysed in Laemmli sample buffer (for SDS-PAGE) or a lysis buffer containing Triton X-100 (for ELISA). Following SDS-PAGE, proteins are electroblotted onto nitrocellulose and immunoprobed for phosphorylated Erk 1 and 2. Blocking and primary antibody incubations of immunoblots are performed in Tris-buffered saline-Tween (10 mM Tris, pH 8.0, 150 mM NaCl, and 0.2% Tween 20) supplemented with 5% (w/v) bovine serum albumin (BSA); secondary antibody incubations are performed in 5% (w/v) dried skim milk powder. Immunoreactive bands are detected by chemiluminescence.
A quantitative method to detect phosphorylated Erk 1/2 by immunofluorescence is also used. Neuroscreen-1 cells are grown in a 96 well plate. NGF preincubated with or without the compounds for 30 minutes, is added to the cells for 5 minutes at 37° C. Cells are then fixed and stained with an antibody against phosphor-ERK 1/2. A fluorescently labeled secondary antibody is used to show the presence of phosphorylated ERK 1/2. Quantitative results are generated by photographing the wells with light of the appropriate wavelength, followed by software based image analysis.

[4] = Table A (Formula Ia), NGF binding, PC12 cells, read-out: IC50
[5] = Table J (Formula VIII), NGF binding, PC12 cells, read-out: IC50
[6] = Table I (Formula VII), NGF binding, PC12 cells, read-out: IC50
[7] = Table B (Formula Ib), NGF binding, PC12 cells, read-out: IC50
[8] = Table 2, read-out: NGF Binding Assay IC50
[9] = Table 3, read-out: NGF Binding Assay IC50

IC50 [1, 5]	IC50 [3]	SMILES	further results
		O=C(O)c1cccc(N2C(=O)c3ccc(C(=O)O)cc3C2=O)c1 [Compound 3]	IC50 [1, 4]: > 50 µM
		O=C(O)c1ccc2c(c1)C(=O)N(c1cc(C(=O)O)ccc1Cl)C2=O [Compound 6]	IC50 [1, 4]: > 50 µM
		O=C(O)CCCCN1C(=O)c2ccc(C(=O)O)cc2C1=O [Compound 2]	IC50 [1, 4]: > 50 µM
		O=C(O)c1ccc(Cl)c(N2C(=O)c3ccc4c5c(ccc(c35)C2=O)C(=O)N(c2cc(C(=O)O)ccc2Cl)C4=O)c1 [Compound 3D]	IC50 [2]: 0.1 to 5 µM
> 50 µM		CN(C)S(=O)(=O)c1cc2c3c(cccc3c1)C(=O)N(CCCC(=O)O)C2=O [Compound 31G]	
< 10 µM		O=C(O)CCCN1C(=O)c2cccc3cc([N+](=O)[O-])cc(c23)C1=O [Compound 27G, 4-(5-Nitro-1,3-dioxo-1H-benzo[de]isoquinolin-2(3H)-yl)butanoic acid]	
30 to 50 µM		O=C(O)CCCN1C(=O)c2cccc3c(Br)ccc(c23)C1=O [Compound 36G]	
		N#Cc1cc2c3c(cc(C#N)cc3c1)C(=O)N(CCCC(=O)O)C2=O [Compound 20G]	IC50 [1, 6]: < 10 µM
10 to 29 µM		NC(=O)c1cc2c3c(cccc3c1)C(=O)N(CCCC(=O)O)C2=O [Compound 30G]	
10 to 29 µM		O=C(O)CCCN1C(=O)c2cccc3c(C(=O)O)ccc(c23)C1=O [Compound 39G]	
10 to 29 µM		O=C(O)CCCN1C(=O)c2cccc3c(C(=O)c4ccccc4)ccc(c23)C1=O [Compound 40G]	
10 to 29 µM		N#Cc1ccc2c3c(cccc13)C(=O)N(CCCC(=O)O)C2=O [Compound 34G]	
	5 to 15 µM	Nc1ccc(C(=O)O)cc1N1C(=O)c2ccc3c4c(ccc(c24)C1=O)C(=O)N(C(CCC(=O)O)C(=O)O)C3=O (stereo not drawn) [Compound 9D]	IC50 [2]: 0.1 to 5 µM
	5 to 15 µM	CCOC(=O)c1cccc(N2Cc3cc(C(=O)O)ccc3C2=O)c1 [Compound 15A]	
		O=C(O)c1ccc(Cl)c(N2C(=O)c3cccc([N+](=O)[O-])c3C2=O)c1 [Compound 18]	IC50 [1, 4]: > 50 µM
< 10 µM		CN(C)S(=O)(=O)c1ccc2c3c(cccc13)C(=O)N(CCCC(=O)O)C2=O [Compound 41G]	
		Nc1cc2c3c(cc(C(=O)O)cc3c1)C(=O)N(CCCC(=O)O)C2=O [Compound 18G, 8-Amino-2-(3-carboxypropyl)-1,3-dioxo-2,3-dihydro-1H-benzo[de]isoquinoline-5-carboxylic acid]	IC50 [1, 6]: < 10 µM
		O=C(O)CCCN1C(=O)c2ccc(C(=O)O)cc2C1=O [Compound 1]	IC50 [1, 4]: > 50 µM
		O=C(O)CCCN1C(=O)c2cc(C(=O)O)cc3cc([N+](=O)[O-])cc(c23)C1=O [Compound 17G, 2-(3-Carboxypropyl)-8-nitro-1,3-dioxo-2,3-dihydro-1H-benzo[de]isoquinoline-5-carboxylic acid]	IC50 [1, 6]: < 10 µM
10 to 29 µM		O=C(O)CCCN1C(=O)c2cccc3c([N+](=O)[O-])ccc(c23)C1=O [Compound 35G]	
	0.1 to 5 µM	O=C(O)CCCN1C(=O)c2ccc(-c3ccc4c(c3)C(=O)N(CCCC(=O)O)C4=O)cc2C1=O [Compound 1C]	
	0.1 to 5 µM	O=C(O)CCCCCN1C(=O)c2ccc(-c3ccc4c(c3)C(=O)N(CCCCCC(=O)O)C4=O)cc2C1=O [Compound 19C]	

IC50 [1, 5]	IC50 [3]	SMILES	further results
		N#Cc1ccc2c(c1)CN(c1cccc(C(=O)O)c1)C2=O [Compound 8A]	IC50 [1, 7]: > 50 µM
	5 to 15 µM	O=C(O)CCCN1C(=O)c2cccc3cc(-c4nnn[nH]4)cc(c23)C1=O [Compound 46G]	IC50 [2]: 5 to 15 µM
	0.1 to 5 µM	O=C(O)CCCCN1C(=O)c2ccc(-c3ccc4c(c3)C(=O)N(CCCCC(=O)O)C4=O)cc2C1=O [Compound 10C]	
	5 to 15 µM	O=C(O)CCCCCCN1C(=O)c2ccc(-c3ccc4c(c3)C(=O)N(CCCCCCC(=O)O)C4=O)cc2C1=O [Compound 21C]	
		O=C(O)c1ccc2c(c1)C(=O)N(CCN1C(=O)c3ccc(C(=O)O)cc3C1=O)C2=O [Compound 41C]	IC50 ([1]; Table E (Formula IIIA), NGF binding, PC12 cells, read-out: IC50): < 10 µM
	0.1 to 5 µM	O=C(O)CCCN1C(=O)c2ccc(-c3ccc4c(c3)C(=O)N(CCCc3nnn[nH]3)C4=O)cc2C1=O [Compound 23C]	
		CN(C)c1cc2c3c(cc(N(C)C)cc3c1)C(=O)N(CCCC(=O)O)C2=O [Compound 15G]	IC50 [1, 6]: 30 to 50 µM
	5 to 15 µM	CC(=O)Nc1cc2c3c(cc(C(=O)O)cc3c1)C(=O)N(CCCC(=O)O)C2=O [Compound 19G, 8-(Acetylamino)-2-(3-carboxypropyl)-1,3-dioxo-2,3-dihydro-1H-benzo[de]isoquinoline-5-carboxylic acid]	IC50 [1, 8]: < 10 µM; IC50 [1, 6]: < 10 µM
> 50 µM		O=C(O)CCCN1C(=O)c2cccc3cccc(c23)C1=O [Compound 26G]	
		O=C(O)c1cccc(N2Cc3cc(C(=O)O)ccc3C2=O)c1 [Compound 12A, 2-(3-Carboxyphenyl)-1-oxoisoindoline-5-carboxylic acid]	IC50 [1, 9]: 10 to 29 µM; IC50 [1, 7]: 10 to 29 µM; IC50 [2]: 5 to 15 µM
	5 to 15 µM	O=C(O)CCN1C(=O)c2ccc(-c3ccc4c(c3)C(=O)N(CCC(=O)O)C4=O)cc2C1=O [Compound 9C]	
	0.1 to 5 µM	O=C1c2ccc(-c3ccc4c(c3)C(=O)N(CCCS(=O)(=O)O)C4=O)cc2C(=O)N1CCCS(=O)(=O)O [Compound 11C]	
		O=C(O)c1cccc(N2C(=O)c3cc(-n4cccc4)cc4cc(-n5cccc5)cc(c34)C2=O)c1 [Compound 21G]	IC50 [1, 6]: > 50 µM
	5 to 15 µM	O=C(O)CCCCCCCN1C(=O)c2ccc(-c3ccc4c(c3)C(=O)N(CCCCCCCC(=O)O)C4=O)cc2C1=O [Compound 22C]	
> 50 µM		O=C(O)CCCN1C(=O)c2cccc3c(S(=O)(=O)O)ccc(c23)C1=O [Compound 37G]	
< 10 µM		Nc1cc2c3c(cccc3c1)C(=O)N(CCCC(=O)O)C2=O [Compound 28G, 4-(5-Amino-1,3-dioxo-1H-benzo[de]isoquinolin-2(3H)-yl)butanoic acid]	
		CC(C)Nc1cc2c3c(cc(NC(C)C)cc3c1)C(=O)N(CCCC(=O)O)C2=O [Compound 16G]	IC50 [1, 6]: 10 to 29 µM
10 to 29 µM		O=C(O)CCCN1C(=O)c2cccc3c(Cl)ccc(c23)C1=O [Compound 38G]	
< 10 µM		CC(=O)Nc1cc2c3c(cccc3c1)C(=O)N(CCCC(=O)O)C2=O [Compound 29G]	
< 10 µM	5 to 15 µM	N#Cc1cc2c3c(cccc3c1)C(=O)N(CCCC(=O)O)C2=O [Compound 32G]	IC50 [1, 8]: < 10 µM; IC50 [1, 9]: < 10 µM; IC50 [2]: 5 to 15 µM
10 to 29 µM		O=C(O)CCCN1C(=O)c2cccc3cc(C(=O)O)cc(c23)C1=O [Compound 33G]	

SMILES	IC50 [1, 5]	IC50 [3]	further results
O=C(O)CCCN1C(=O)c2cccc3cc(-c4cccc(C(=O)O)c4)cc(c23)C1=O [Compound 45G]		15 to 25 µM	
